Reference: ChEMBL document CHEMBL5131495, “Discovery of unique thiazolidinone-conjugated coumarins as novel broad spectrum antibacterial agents” (Eur J Med Chem, 2022)
≈ marks a conversion by molar mass, not a printed value.

What was measured:
Type in all cases: functional
Pseudomonas aeruginosa [1] = test: Antibacterial activity against Pseudomonas aeruginosa ATCC 27853 assessed as inhibition of bacterial growth
Staphylococcus aureus [2] = test: Antibacterial activity against Staphylococcus aureus assessed as inhibition of bacterial growth
Escherichia coli [3] = test: Antibacterial activity against Escherichia coli ATCC 25922 assessed as inhibition of bacterial growth
Escherichia coli [4] = test: Antibacterial activity against Escherichia coli assessed as inhibition of bacterial growth
Klebsiella pneumoniae = test: Antibacterial activity against Klebsiella pneumoniae assessed as inhibition of bacterial growth
Acinetobacter baumannii = test: Antibacterial activity against Acinetobacter baumannii assessed as inhibition of bacterial growth
Enterococcus faecalis = test: Antibacterial activity against Enterococcus faecalis assessed as inhibition of bacterial growth
Pseudomonas aeruginosa [5] = test: Antibacterial activity against Pseudomonas aeruginosa assessed as inhibition of bacterial growth
Staphylococcus aureus [6] = test: Antibacterial activity against Staphylococcus aureus ATCC 25923 assessed as inhibition of bacterial growth
Staphylococcus aureus [7] = test: Antibacterial activity against Staphylococcus aureus ATCC 29213 assessed as inhibition of bacterial growth
Staphylococcus aureus [8] = test: Antibacterial activity against methicillin resistant Staphylococcus aureus N315 assessed as inhibition of bacterial growth

Structure (SMILES)	MIC (Pseudomonas aeruginosa [1])	MIC (Staphylococcus aureus [2])	MIC (Escherichia coli [3])	MIC (Escherichia coli [4])	MIC (Klebsiella pneumoniae)	MIC (Acinetobacter baumannii)	MIC (Enterococcus faecalis)	MIC (Pseudomonas aeruginosa [5])	MIC (Staphylococcus aureus [6])	MIC (Staphylococcus aureus [7])	MIC (Staphylococcus aureus [8])
Cc1cc(=O)oc2cc(/N=C3/S/C(=C\c4ccc(F)cc4)C(=O)N3CCO)ccc12	64 µg/mL (≈ 151 µM)	64 µg/mL (≈ 151 µM)	128 µg/mL (≈ 302 µM)	128 µg/mL (≈ 302 µM)	256 µg/mL (≈ 603 µM)	4 µg/mL (≈ 9.42 µM)	32 µg/mL (≈ 75.4 µM)	32 µg/mL (≈ 75.4 µM)	128 µg/mL (≈ 302 µM)	16 µg/mL (≈ 37.7 µM)	64 µg/mL (≈ 151 µM)
Cc1cc(=O)oc2cc(/N=C3/S/C(=C\c4ccccc4F)C(=O)N3CCO)ccc12	1 µg/mL (≈ 2.36 µM)	1 µg/mL (≈ 2.36 µM)	16 µg/mL (≈ 37.7 µM)	32 µg/mL (≈ 75.4 µM)	32 µg/mL (≈ 75.4 µM)	16 µg/mL (≈ 37.7 µM)	0.25 µg/mL (≈ 0.589 µM)	4 µg/mL (≈ 9.42 µM)	32 µg/mL (≈ 75.4 µM)	64 µg/mL (≈ 151 µM)	4 µg/mL (≈ 9.42 µM)
Cc1cc(=O)oc2cc(/N=C3/S/C(=C\c4ccc[nH]4)C(=O)N3CCO)ccc12	32 µg/mL (≈ 80.9 µM)	64 µg/mL (≈ 162 µM)	128 µg/mL (≈ 324 µM)	2 µg/mL (≈ 5.06 µM)	64 µg/mL (≈ 162 µM)	4 µg/mL (≈ 10.1 µM)	128 µg/mL (≈ 324 µM)	256 µg/mL (≈ 647 µM)	128 µg/mL (≈ 324 µM)	64 µg/mL (≈ 162 µM)	64 µg/mL (≈ 162 µM)
Cc1cc(=O)oc2cc(/N=C3/S/C(=C\c4ccc(O)c(Br)c4)C(=O)N3CCO)ccc12	32 µg/mL (≈ 63.8 µM)	16 µg/mL (≈ 31.9 µM)	32 µg/mL (≈ 63.8 µM)	256 µg/mL (≈ 511 µM)	64 µg/mL (≈ 128 µM)	64 µg/mL (≈ 128 µM)	64 µg/mL (≈ 128 µM)	32 µg/mL (≈ 63.8 µM)	64 µg/mL (≈ 128 µM)	128 µg/mL (≈ 255 µM)	128 µg/mL (≈ 255 µM)
CCn1cc(/C=C2\S/C(=N/c3ccc4c(C)cc(=O)oc4c3)N(CCO)C2=O)c2ccccc21	32 µg/mL (≈ 67.6 µM)	128 µg/mL (≈ 270 µM)	128 µg/mL (≈ 270 µM)	64 µg/mL (≈ 135 µM)	64 µg/mL (≈ 135 µM)	64 µg/mL (≈ 135 µM)	128 µg/mL (≈ 270 µM)	64 µg/mL (≈ 135 µM)	64 µg/mL (≈ 135 µM)	128 µg/mL (≈ 270 µM)	128 µg/mL (≈ 270 µM)
Cc1cc(=O)oc2cc(/N=C3/S/C(=C\c4nccs4)C(=O)N3CCO)ccc12	128 µg/mL (≈ 310 µM)	16 µg/mL (≈ 38.7 µM)	256 µg/mL (≈ 619 µM)	128 µg/mL (≈ 310 µM)	2 µg/mL (≈ 4.84 µM)	1 µg/mL (≈ 2.42 µM)	4 µg/mL (≈ 9.67 µM)	128 µg/mL (≈ 310 µM)	1 µg/mL (≈ 2.42 µM)	64 µg/mL (≈ 155 µM)	64 µg/mL (≈ 155 µM)
Cc1cc(=O)oc2cc(/N=C3/S/C(=C\c4ccc(O)c(Cl)c4)C(=O)N3CCO)ccc12	4 µg/mL (≈ 8.75 µM)	32 µg/mL (≈ 70 µM)	32 µg/mL (≈ 70 µM)	16 µg/mL (≈ 35 µM)	32 µg/mL (≈ 70 µM)	16 µg/mL (≈ 35 µM)	8 µg/mL (≈ 17.5 µM)	32 µg/mL (≈ 70 µM)	128 µg/mL (≈ 280 µM)	256 µg/mL (≈ 560 µM)	64 µg/mL (≈ 140 µM)
Cc1cc(=O)oc2cc(/N=C3/S/C(=C\c4ccco4)C(=O)N3CCO)ccc12	32 µg/mL (≈ 80.7 µM)	128 µg/mL (≈ 323 µM)	4 µg/mL (≈ 10.1 µM)	128 µg/mL (≈ 323 µM)	128 µg/mL (≈ 323 µM)	1 µg/mL (≈ 2.52 µM)	16 µg/mL (≈ 40.4 µM)	64 µg/mL (≈ 161 µM)	256 µg/mL (≈ 646 µM)	32 µg/mL (≈ 80.7 µM)	8 µg/mL (≈ 20.2 µM)
Cc1cc(=O)oc2cc(/N=C3/S/C(=C\c4ccc(C(F)(F)F)cc4)C(=O)N3CCO)ccc12	256 µg/mL (≈ 540 µM)	128 µg/mL (≈ 270 µM)	256 µg/mL (≈ 540 µM)	128 µg/mL (≈ 270 µM)	128 µg/mL (≈ 270 µM)	32 µg/mL (≈ 67.4 µM)	256 µg/mL (≈ 540 µM)	32 µg/mL (≈ 67.4 µM)	64 µg/mL (≈ 135 µM)	256 µg/mL (≈ 540 µM)	256 µg/mL (≈ 540 µM)
Cc1cc(=O)oc2cc(/N=C3/S/C(=C\c4csc5ccccc45)C(=O)N3CCO)ccc12	64 µg/mL (≈ 138 µM)	128 µg/mL (≈ 277 µM)	64 µg/mL (≈ 138 µM)	128 µg/mL (≈ 277 µM)	32 µg/mL (≈ 69.2 µM)	8 µg/mL (≈ 17.3 µM)	64 µg/mL (≈ 138 µM)	128 µg/mL (≈ 277 µM)	256 µg/mL (≈ 553 µM)	128 µg/mL (≈ 277 µM)	128 µg/mL (≈ 277 µM)
Cc1cc(=O)oc2cc(/N=C3/S/C(=C\c4ccc(Cl)cc4Cl)C(=O)N3CCO)ccc12	128 µg/mL (≈ 269 µM)	256 µg/mL (≈ 539 µM)	256 µg/mL (≈ 539 µM)	256 µg/mL (≈ 539 µM)	64 µg/mL (≈ 135 µM)	4 µg/mL (≈ 8.41 µM)	128 µg/mL (≈ 269 µM)	64 µg/mL (≈ 135 µM)	128 µg/mL (≈ 269 µM)	128 µg/mL (≈ 269 µM)	32 µg/mL (≈ 67.3 µM)
Cc1cc(=O)oc2cc(/N=C3/S/C(=C\C4CCCCC4)C(=O)N3CCO)ccc12	16 µg/mL (≈ 38.8 µM)	256 µg/mL (≈ 621 µM)	256 µg/mL (≈ 621 µM)	256 µg/mL (≈ 621 µM)	256 µg/mL (≈ 621 µM)	64 µg/mL (≈ 155 µM)	256 µg/mL (≈ 621 µM)	256 µg/mL (≈ 621 µM)	256 µg/mL (≈ 621 µM)	16 µg/mL (≈ 38.8 µM)	256 µg/mL (≈ 621 µM)
Cc1cc(=O)oc2cc(/N=C3/S/C(=C\c4cccc(Cl)c4)C(=O)N3CCO)ccc12	1 µg/mL (≈ 2.27 µM)	32 µg/mL (≈ 72.6 µM)	64 µg/mL (≈ 145 µM)	32 µg/mL (≈ 72.6 µM)	32 µg/mL (≈ 72.6 µM)	4 µg/mL (≈ 9.07 µM)	32 µg/mL (≈ 72.6 µM)	2 µg/mL (≈ 4.54 µM)	8 µg/mL (≈ 18.1 µM)	32 µg/mL (≈ 72.6 µM)	8 µg/mL (≈ 18.1 µM)
